# The supplement of paper PMC10627819
# How the values were obtained:
# Test in all cases: Bliss interaction score (quartile over a dose matrix) (fitness difference); higher = more antagonism (negative = synergy)
# [1] = tested on: S. pneumoniae D39V
# Method in brief: (§1)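 The Bliss score subtracts expected fitness, the product of the single-drug fitness values, from observed fitness. Fitness is plate-normalised OD595 at entry into stationary phase, relative to the robust no-drug mean and capped at 1, with single-drug fitness inferred from combinations. Summaries are quartiles over technical, biological and donor/recipient replicates.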
# [2] = tested on: B. subtilis 168
# Method in brief: as §1
# [3] = tested on: S. aureus DSM 20231
# Method in brief: as §1
# [4] = tested on: S. aureus Newman
# Method in brief: as §1
# 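Further: first quartile when negative (synergy) and third quartile when positive (antagonism).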
smiles,measurement,setting,value
O=C(O)[C@H]1/C(=C/CO)O[C@@H]2CC(=O)N21 [Clavulanic] + COc1cc(Cc2cnc(N)nc2N)cc(OC)c1OC [Trimethoprim],Bliss interaction score,[1],0.116
same,Bliss interaction score,[2],0.101
same,Bliss interaction score,[3],-0.186
same,Bliss interaction score,[4],0.221
O=C(O)[C@H]1/C(=C/CO)O[C@@H]2CC(=O)N21 [Clavulanic] + COc1ccc(C[C@H](N)C(=O)N[C@H]2[C@@H](O)[C@H](n3cnc4c(N(C)C)ncnc43)O[C@@H]2CO)cc1 [Puromycin],Bliss interaction score,[1],0.0764
same,Bliss interaction score,[2],0.0481
same,Bliss interaction score,[3],0.0964
same,Bliss interaction score,[4],-0.0706
O=C(O)[C@H]1/C(=C/CO)O[C@@H]2CC(=O)N21 [Clavulanic] + COc1cccc2c1C(=O)c1c(O)c3c(c(O)c1C2=O)C[C@@](O)(C(=O)CO)C[C@@H]3O[C@H]1C[C@H](N)[C@H](O)[C@H](C)O1 [Doxorubicin],Bliss interaction score,[1],0.0444
same,Bliss interaction score,[2],0.067
same,Bliss interaction score,[3],0.0451
same,Bliss interaction score,[4],0.0836
O=C(O)[C@H]1/C(=C/CO)O[C@@H]2CC(=O)N21 [Clavulanic] + C[C@@H]1O[C@@H]1P(=O)(O)O [Fosfomycin],Bliss interaction score,[1],-0.0291
same,Bliss interaction score,[2],-0.089
same,Bliss interaction score,[3],0.0474
same,Bliss interaction score,[4],0.258
O=C(O)[C@H]1/C(=C/CO)O[C@@H]2CC(=O)N21 [Clavulanic] + C[C@@H](O)[C@H]1C(=O)N2C(C(=O)O)=C(SCCNC=N)C[C@H]12 [Imipenem],Bliss interaction score,[1],0.0559
same,Bliss interaction score,[2],0.108
same,Bliss interaction score,[3],0.094
same,Bliss interaction score,[4],-0.0736
O=C(O)[C@H]1/C(=C/CO)O[C@@H]2CC(=O)N21 [Clavulanic] + C[C@H]1COc2c(N3CCN(C)CC3)c(F)cc3c(=O)c(C(=O)O)cn1c23 [Levofloxacin],Bliss interaction score,[1],-0.197
same,Bliss interaction score,[2],-0.024
same,Bliss interaction score,[3],-0.222
same,Bliss interaction score,[4],0.242
O=C(O)[C@H]1/C(=C/CO)O[C@@H]2CC(=O)N21 [Clavulanic] + C[C@H]1c2cccc(O)c2C(=O)C2=C(O)[C@]3(O)C(=O)C(C(N)=O)=C(O)[C@@H](N(C)C)[C@@H]3[C@@H](O)[C@@H]21 [Doxycycline],Bliss interaction score,[1],-0.0431
same,Bliss interaction score,[2],0.0656
same,Bliss interaction score,[3],-0.273
same,Bliss interaction score,[4],0.268
O=C(O)[C@H]1/C(=C/CO)O[C@@H]2CC(=O)N21 [Clavulanic] + C[n+]1ccc(-c2cc[n+](C)cc2)cc1 [Paraquat],Bliss interaction score,[1],0.0522
same,Bliss interaction score,[2],-0.0541
same,Bliss interaction score,[3],0.0962
same,Bliss interaction score,[4],-0.0709
O=C(O)[C@H]1/C(=C/CO)O[C@@H]2CC(=O)N21 [Clavulanic] + Cc1cc(NS(=O)(=O)c2ccc(N)cc2)no1 [Sulfamethoxazol],Bliss interaction score,[1],0.0674
same,Bliss interaction score,[2],0.0509
same,Bliss interaction score,[3],0.0966
same,Bliss interaction score,[4],-0.0365
O=C(O)[C@H]1/C(=C/CO)O[C@@H]2CC(=O)N21 [Clavulanic] + Cc1ncc([N+](=O)[O-])n1CCO [Metronidazole],Bliss interaction score,[1],0.0632
same,Bliss interaction score,[2],0.0385
same,Bliss interaction score,[3],0.0966
same,Bliss interaction score,[4],-0.112
O=C(O)[C@H]1/C(=C/CO)O[C@@H]2CC(=O)N21 [Clavulanic] + Cc1onc(-c2ccccc2)c1C(=O)N[C@@H]1C(=O)N2[C@@H]1SC(C)(C)[C@@H]2C(=O)O [Oxacillin],Bliss interaction score,[1],-0.051
same,Bliss interaction score,[2],0.0555
same,Bliss interaction score,[3],0.0346
same,Bliss interaction score,[4],0.0727
O=C(O)[C@H]1/C(=C/CO)O[C@@H]2CC(=O)N21 [Clavulanic] + Clc1ccc(COC(Cn2ccnc2)c2ccc(Cl)cc2Cl)c(Cl)c1 [Miconazole],Bliss interaction score,[1],0.0698
same,Bliss interaction score,[2],0.0639
same,Bliss interaction score,[3],0.101
same,Bliss interaction score,[4],-0.0736
O=C(O)[C@H]1/C(=C/CO)O[C@@H]2CC(=O)N21 [Clavulanic] + Cn1nnc(-c2ccc(-c3ccc(N4C[C@H](CO)OC4=O)cc3F)cn2)n1 [Tedizolid],Bliss interaction score,[1],-0.0878
same,Bliss interaction score,[2],0.0942
same,Bliss interaction score,[3],-0.18
same,Bliss interaction score,[4],0.255
O=C(O)[C@H]1/C(=C/CO)O[C@@H]2CC(=O)N21 [Clavulanic] + N[C@@H]1CONC1=O [CycloserineD],Bliss interaction score,[1],-0.0906
same,Bliss interaction score,[2],0.0614
same,Bliss interaction score,[3],0.116
same,Bliss interaction score,[4],-0.0992
O=C(O)[C@H]1/C(=C/CO)O[C@@H]2CC(=O)N21 [Clavulanic] + O=C1CN(/N=C/c2ccc([N+](=O)[O-])o2)C(=O)N1 [Nitrofurantoin],Bliss interaction score,[1],0.0879
same,Bliss interaction score,[2],0.0868
same,Bliss interaction score,[3],0.039
same,Bliss interaction score,[4],0.102
O=C(O)[C@H]1/C(=C/CO)O[C@@H]2CC(=O)N21 [Clavulanic] + O=C(O[C@@H]1Cc2c(O)cc(O)cc2O[C@@H]1c1cc(O)c(O)c(O)c1)c1cc(O)c(O)c(O)c1 [EGCG],Bliss interaction score,[1],0.0628
same,Bliss interaction score,[2],-0.0667
same,Bliss interaction score,[3],0.0689
same,Bliss interaction score,[4],0.168
O=C(O)[C@H]1/C(=C/CO)O[C@@H]2CC(=O)N21 [Clavulanic] + Oc1cc(Cl)ccc1Oc1ccc(Cl)cc1Cl [Triclosan],Bliss interaction score,[1],0.0445
same,Bliss interaction score,[2],0.0658
same,Bliss interaction score,[3],0.081
same,Bliss interaction score,[4],-0.0656
CNC(C)C1CCC(N)C(OC2C(N)CC(N)C(OC3OCC(C)(O)C(NC)C3O)C2O)O1 (stereo not drawn) [Gentamicin] + CC1(C)S[C@@H]2[C@H](NC(=O)Cc3ccccc3)C(=O)N2[C@H]1C(=O)O [PenicillinG],Bliss interaction score,[1]; main component drawn,0.0914
same,Bliss interaction score,[2]; main component drawn,0.0952
same,Bliss interaction score,[3]; main component drawn,0.0582
same,Bliss interaction score,[4]; main component drawn,-0.0512
CNC(C)C1CCC(N)C(OC2C(N)CC(N)C(OC3OCC(C)(O)C(NC)C3O)C2O)O1 (stereo not drawn) [Gentamicin] + CC[C@H]1OC(=O)[C@H](C)C(=O)[C@H](C)[C@@H](O[C@@H]2O[C@H](C)C[C@H](N(C)C)[C@H]2O)[C@](C)(OC)C[C@@H](C)C(=O)[C@H](C)[C@H]2N(CCCCn3cnc(-c4cccnc4)c3)C(=O)O[C@]12C [Telithromycin],Bliss interaction score,[1]; main component drawn,0.0542
same,Bliss interaction score,[2]; main component drawn,0.0903
same,Bliss interaction score,[3]; main component drawn,0.0492
same,Bliss interaction score,[4]; main component drawn,0.0544
CNC(C)C1CCC(N)C(OC2C(N)CC(N)C(OC3OCC(C)(O)C(NC)C3O)C2O)O1 (stereo not drawn) [Gentamicin] + CN[C@H](CC(C)C)C(=O)N[C@H]1C(=O)N[C@@H](CC(N)=O)C(=O)N[C@H]2C(=O)N[C@H]3C(=O)N[C@H](C(=O)N[C@H](C(=O)O)c4cc(O)cc(O)c4-c4cc3ccc4O)[C@H](O[C@H]3C[C@](C)(N)[C@@H](O)[C@H](C)O3)c3ccc(c(Cl)c3)Oc3cc2cc(c3O[C@@H]2O[C@H](CO)[C@@H](O)[C@H](O)[C@H]2O[C@H]2C[C@](C)(NCc3ccc(-c4ccc(Cl)cc4)cc3)[C@@H](O)[C@H](C)O2)Oc2ccc(cc2Cl)[C@H]1O [Oritavancin],Bliss interaction score,[1]; main component drawn,0.0748
same,Bliss interaction score,[2]; main component drawn,0.048
same,Bliss interaction score,[3]; main component drawn,-0.0507
same,Bliss interaction score,[4]; main component drawn,0.0919
CNC(C)C1CCC(N)C(OC2C(N)CC(N)C(OC3OCC(C)(O)C(NC)C3O)C2O)O1 (stereo not drawn) [Gentamicin] + CO[C@@]12[C@H](COC(N)=O)C3=C(C(=O)C(C)=C(N)C3=O)N1C[C@@H]1N[C@@H]12 [MitomycinC],Bliss interaction score,[1]; main component drawn,0.0575
same,Bliss interaction score,[2]; main component drawn,-0.0792
same,Bliss interaction score,[3]; main component drawn,-0.0573
same,Bliss interaction score,[4]; main component drawn,0.0445
CNC(C)C1CCC(N)C(OC2C(N)CC(N)C(OC3OCC(C)(O)C(NC)C3O)C2O)O1 (stereo not drawn) [Gentamicin] + Oc1cc(Cl)ccc1Oc1ccc(Cl)cc1Cl [Triclosan],Bliss interaction score,[1]; main component drawn,0.0731
same,Bliss interaction score,[2]; main component drawn,-0.17
same,Bliss interaction score,[3]; main component drawn,-0.0821
same,Bliss interaction score,[4]; main component drawn,0.0182
Clc1ccc(COC(Cn2ccnc2)c2ccc(Cl)cc2Cl)c(Cl)c1 (stereo not drawn) [Miconazole] + CC1(C)S[C@@H]2[C@H](NC(=O)Cc3ccccc3)C(=O)N2[C@H]1C(=O)O [PenicillinG],Bliss interaction score,[1],0.106
same,Bliss interaction score,[2],0.0707
same,Bliss interaction score,[3],0.0525
same,Bliss interaction score,[4],-0.0331
Clc1ccc(COC(Cn2ccnc2)c2ccc(Cl)cc2Cl)c(Cl)c1 (stereo not drawn) [Miconazole] + CCCCCCCCCC(=O)N[C@@H]1[C@H]([C@@H]([C@H](O[C@H]1OC2=C3C=C4C=C2OC5=C(C=C(C=C5)[C@H]([C@H]6C(=O)N[C@@H](C7=C(C(=CC(=C7)O)OC8[C@H]([C@H]([C@@H]([C@H](O8)CO)O)O)O)C9=C(C=CC(=C9)[C@H](C(=O)N6)NC(=O)[C@@H]4NC(=O)[C@@H]1C2=CC(=CC(=C2)OC2=C(C=CC(=C2)[C@H](C(=O)N[C@H](CC2=CC(=C(O3)C=C2)Cl)C(=O)N1)N)O)O)O)C(=O)O)O[C@H]1[C@@H]([C@H]([C@@H]([C@H](O1)CO)O)O)NC(=O)C)Cl)CO)O)O [Teicoplanin],Bliss interaction score,[1]; main component drawn,0.115
same,Bliss interaction score,[2]; main component drawn,0.117
same,Bliss interaction score,[3]; main component drawn,-0.0409
same,Bliss interaction score,[4]; main component drawn,-0.0558
Clc1ccc(COC(Cn2ccnc2)c2ccc(Cl)cc2Cl)c(Cl)c1 (stereo not drawn) [Miconazole] + CC[C@H]1OC(=O)[C@H](C)C(=O)[C@H](C)[C@@H](O[C@@H]2O[C@H](C)C[C@H](N(C)C)[C@H]2O)[C@](C)(OC)C[C@@H](C)C(=O)[C@H](C)[C@H]2N(CCCCn3cnc(-c4cccnc4)c3)C(=O)O[C@]12C [Telithromycin],Bliss interaction score,[1],0.104
same,Bliss interaction score,[2],0.0586
same,Bliss interaction score,[3],0.04
same,Bliss interaction score,[4],0.0508
Clc1ccc(COC(Cn2ccnc2)c2ccc(Cl)cc2Cl)c(Cl)c1 (stereo not drawn) [Miconazole] + CN[C@H](CC(C)C)C(=O)N[C@H]1C(=O)N[C@@H](CC(N)=O)C(=O)N[C@H]2C(=O)N[C@H]3C(=O)N[C@H](C(=O)N[C@H](C(=O)O)c4cc(O)cc(O)c4-c4cc3ccc4O)[C@H](O[C@H]3C[C@](C)(N)[C@@H](O)[C@H](C)O3)c3ccc(c(Cl)c3)Oc3cc2cc(c3O[C@@H]2O[C@H](CO)[C@@H](O)[C@H](O)[C@H]2O[C@H]2C[C@](C)(NCc3ccc(-c4ccc(Cl)cc4)cc3)[C@@H](O)[C@H](C)O2)Oc2ccc(cc2Cl)[C@H]1O [Oritavancin],Bliss interaction score,[1],-0.0639
same,Bliss interaction score,[2],-0.0225
same,Bliss interaction score,[3],-0.0286
same,Bliss interaction score,[4],-0.0754
Clc1ccc(COC(Cn2ccnc2)c2ccc(Cl)cc2Cl)c(Cl)c1 (stereo not drawn) [Miconazole] + CO[C@@H]1[C@@H](OC(N)=O)[C@@H](O)[C@H](Oc2ccc3c(O)c(NC(=O)c4ccc(O)c(CC=C(C)C)c4)c(=O)oc3c2C)OC1(C)C [Novobiocin],Bliss interaction score,[1],0.121
same,Bliss interaction score,[2],0.0735
same,Bliss interaction score,[3],0.0483
same,Bliss interaction score,[4],0.0415
